Patent publication US11779597B2, “Method of treating Parkinson's and other neurodegenerative diseases” (Vector Vitale IP LLC, priority 2019, dated 2023)

How the values were obtained:
peritoneal macrophages = test: Metabolic profile of nonsensitized mouse peritoneal macrophages in vitro; format: cell-based, mice of c57/B6 line; set-up: spontaneous production of reactive nitrogen species by PM: dose or concentration left out as unconfirmed
Experimental: Materials and methods: Peritoneal macrophages (PM) were isolated from the peritoneal cavity of male mice of c57/B6 line with an average body weight of 22 g without previous sensibilization. The metabolic profile of phagocytes was characterized by the arginine metabolic pathway (by the levels of arginase activity and NO synthesis measured using photocolorimetric methods), the level of formation of intracellular reactive oxygen species (ROS) by esterases and phagocytic activity measured using flow cytometry as well as the levels of NADH and NADPH oxidase activation, as determined in the NBT test. Duration of treatment of a standardized suspension of nonsensitized macrophages from the peritoneal cavity varied depending on the methodological characteristics of metabolic response. A 90 minute exposure to the drugs according to Kim D K, Pfeifer J. Surg Forum. 1977; 28:85-7 was used to analyze their effects on oxidative metabolism and phagocytic activity. An 18 hour exposure according to Lastra M D, et al., J Trace Elem Med Biol. 2001; 15(1):5-10 was used to analyze the effects on arginine metabolic pathway. To analyze the effects of the drugs under study on the induced (stimulated) metabolic activity of phagocytes, the cells were treated with lipopolysaccharide (LPS) from E. coli (Sigma, USA) according to Haddad J J. Mol Immunol. 2009; 47(2-3):205-14. doi: 10.1016/j.molimm.2009.09.034.

[1] = tested on: LPS rat models of Parkinson's disease; test: Open field test; format: in vivo
Excerpt: Method. The open field test is a technique commonly used to measure locomotor activity of rodents and their level of exploratory activity in an unfamiliar environment, as well as assess the levels of fear of novelty, anxiety or an increase in orientation response in rodents (Denenberg V H, et al., Physiology and Behavior, 1969; 4:403-406; Pellow S et al., J Neurosci Methods. 1985; 14(3):149-67). Behavioral patterns measured in the open field test include: distance travelled in the outer and inner perimeter, duration of time spent in the outer and inner perimeter, the total distance travelled and a percentage of the number of internal squares crossed compared to the total number of squares.
The open field was a square chamber 100×100 cm in size and with walls 60 cm high. The chamber was illuminated by two LED bulbs, 60 watts each, hanging at a height of 2 m. An IP camera was used to record the rodent movement. The MATLAB-based software was used to analyze the parameters. The statistical analysis was performed using GraphPad Prism. Significance was set at <0.005. The data collected from the open field were analyzed using One-way ANOVA (Tukey test or Dunnett test) and Unpaired t-test or Mann-Whitney.
Data analysis and interpretation. A novel environment in which an animal finds itself evokes conflict between fear and a desire to explore this environment. These two behavioral tendencies are characterized by different temporal variations and different spatial advantages. In the analysis, an arena is divided into two zones: inner and outer. The total locomotor activity and time spent in the inner and outer zones are the most significant parameters for assessing the levels of anxiety in rats. […] An increase in attendance of the inner zone is interpreted as a decreased anxiety in the animal. The emotional and exploratory behavior of an animal can be affected by various disorders in such brain regions as the hippocampus and the amygdala. In addition, various substances that have anxiolytic, stimulating and muscle relaxant effects can influence the results of the experiment. FIG. 50A and FIG. 50B show an example of analysis of a rat trajectory in the experimental arena.
On the 1st day of the experiment, rats were either operated to model hemi-parkinsonism or sham operated. From the 9th to the 18th day of the experiment, the animals were injected either deuterium-depleted water or the test substance, according to their allocation into groups, for 10 days. On the 8th day of the experiment (before initiation of treatment—apomorphine test I) and on the 21st day of the experiment (after the end of administering the test substance —apomorphine test II) the animals underwent an apomorphine test to analyze the development of hemi-parkinsonism which correlates with the number of destroyed dopaminergic neurons. In addition, a follow-up analysis of fecal water content was carried out, i.e., before the start of treatment on the 8th day after the operation, as well as on the 21st (after the end of treatment) and the 28th day (before autopsy). On the 24th day of the experiment, behavioral tests were carried out in all groups. All animals were weighed before autopsy. During autopsy, ⅔ of animals from each group were sacrificed by cervical dislocation and brain and blood samples were collected for further biochemical and immunological tests. ⅓ of the animals were used for further immunohistochemical studies of the brain; for this purpose, under anesthesia, a procedure of fast, controlled and uniform fixation of the whole body of the animal was performed using 4% paraformaldehyde perfused through the heart of the rat to obtain the best preservation of the brain architecture for immunohistochemistry. Gage G J, et al., J Vis Exp. 2012 Jul. 30; (65).

^64Zn-enriched zinc aspartate [^64Zne-asp]
ROS generation compared with LPS treatment (peritoneal macrophages; 10 μg/ml, 90 min): more expressive stimulation
NO synthesis by bacterial LPS-stimulated PM (peritoneal macrophages; 18-hour exposure): statistically significant reduction
spontaneous production of reactive nitrogen species by PM (peritoneal macrophages; 18-hour exposure): statistically significant inhibition
arginase activity of PM (peritoneal macrophages; 18-hour treatment): multidirectional weak effect
phagocytic activity of nonsensitized PM (peritoneal macrophages; 90 min exposure): did not have a significant effect
spontaneous and LPS-stimulated ROS production by macrophages (peritoneal macrophages; 90 min treatment): moderate stimulating effect
spontaneous or induced activation of NADH and NADPH oxidases (NBT test) (peritoneal macrophages; 90 min treatment): did not have a statistically significant effect
frequency of defecations (in words) ([1]; LPS + ^64Zn-asp versus LPS + deuterium-depleted water): increased
Number of defecations ([1]; LPS + ^64Zn-asp, Gr. V): 7 ± 2.582
Number of groomings ([1]; LPS + ^64Zn-asp, Gr. V): 3.5 ± 1.354
Number of rearings ([1]; LPS + ^64Zn-asp, Gr. V): 14.4 ± 6.687
Time spent in the inner perimeter ([1]; LPS + ^64Zn-asp, Gr. V): 9.235 ± 9.344 s
Time spent in the outer perimeter ([1]; LPS + ^64Zn-asp, Gr. V): 290.8 ± 9.333 s
Total distance travelled, cm ([1]; LPS + ^64Zn-asp, Gr. V): 1056 ± 423 cm
levels of locomotor activity, anxiety or irritability (summary of behavioral tests) ([1]; findings of Example 7): no significant effects
total distance travelled, time in outer and inner perimeter, number of rearings and groomings (in words) ([1]; group V (LPS+^64Zn-asp) versus group IV (LPS)): did not have any effect
